# Measured values as given in patent US20240390383A1, “DIOXAZINES AND THEIR USE IN TREATMENT OF GBA-RELATED DISEASES” (ZEVRA DENMARK A/S, priority 2021, published 2024).
# Where “and” joins values, the source holds several entries; their conditions need not be identical. Equal entries are not always repeated.
# Molecular target: T1, GCase (GBA) in human fibroblast cell line GM10915 harboring the L444P GBA mutation (Homo sapiens, UniProt P04062, L483P)
# T1 construct: Human fibroblast cell line GM10915 harboring the L444P GBA mutation; host or cells: GM10915 human fibroblasts
# T1 sequence (P04062 40-536 L483P): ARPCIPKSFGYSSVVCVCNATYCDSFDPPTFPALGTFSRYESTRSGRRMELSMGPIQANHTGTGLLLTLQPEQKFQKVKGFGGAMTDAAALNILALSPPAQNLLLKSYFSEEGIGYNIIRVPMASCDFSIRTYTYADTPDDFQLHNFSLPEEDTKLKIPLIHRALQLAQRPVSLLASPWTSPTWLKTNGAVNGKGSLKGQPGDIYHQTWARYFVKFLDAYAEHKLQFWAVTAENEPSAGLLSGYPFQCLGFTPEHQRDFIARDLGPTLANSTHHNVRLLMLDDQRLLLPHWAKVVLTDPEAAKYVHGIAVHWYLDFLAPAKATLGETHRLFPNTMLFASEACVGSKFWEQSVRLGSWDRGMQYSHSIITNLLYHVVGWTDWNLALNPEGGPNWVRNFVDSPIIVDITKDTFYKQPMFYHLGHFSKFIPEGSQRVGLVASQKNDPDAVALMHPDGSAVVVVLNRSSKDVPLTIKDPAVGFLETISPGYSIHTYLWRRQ
# Assay: GCase activity assay (4-MUG substrate, normalised to crystal violet staining) in L444P GBA fibroblasts
# Assay type: cell-based
# Conditions: 5 days exposure; for GBA EC1.5: concentration giving 150% GCase activity (1.5-fold induction), 8-point dose range
# Description: Human fibroblast cell line GM10915 harboring the L444P GBA mutation was obtained from Coriell Biorepositories.
# All chemicals (Glacial acetic acid, Glycine, 4-Methylumbelliferyl b-D-glucopyranoside (4-MUG), Sodium acetate trihydrate, Sodium hydroxide, Crystal violet, SDS, Ammonium hydroxide) were obtained from Sigma-Aldrich (Denmark) Compounds tested for GCase activity were dissolved in H2O or DMSO.
# The GM10915 cell line was cultured under standard cell culture conditions (37° C. and 5% CO2) in complete DMEM medium supplemented with nonessential amino acids (NEAA), 1% Pen-Strep and 12% FCS. Cells were seeded at a density of 10^4 cells/well in 100 μL complete medium in one black 96-well plate for glucosylceramidase (GCase) activity measurement and in one clear 96-well plate for crystal violet staining to correct for cell density. Crystal violet staining is performed to obtain quantitative information about the relative density of cells adhering to multi-wells plates.
# The assay was adapted from Sawkar et al (2002) and briefly described in the following. The day after seeding of cells, the medium was replaced with fresh medium containing the compounds to be tested. Compounds were tested in duplicate and in an 8-point diluted dose range to obtain a dose response. Cells were exposed with compounds for five days. Fresh compound was added every 2-3 days. PBS was included to define the basal level of GCase activity.
# Cells were washed three times with 200 μL PBS per well and 50 μL of 2.5 mM 4-MUG buffer (4-MUG dissolved in 0.2 M acetate buffer pH 4.0) was added and the cells were incubated at 37° C., 5% CO2 for 23 hours. The reaction was stopped by adding 150 μL 0.2 M glycine buffer (pH 10.8). Fluorescence was measured with a Varioskan® Flash reader (Thermo Scientific) at an excitation/emission setting of 365/445 nm.
# Cells were treated with compounds in a parallel setup identical to the setup to test for GCase activity. At the end of compound treatment, cells were washed once with 200 μL PBS per well and 50 μL 0.1% w/v crystal violet (in H2O) was added. Following 10 min. of incubation, the crystal violet solution was removed, and the cells were washed three times with 200 μL PBS and 100 μL 1% SDS was added to solubilize the stain. The plate was agitated on an orbital shaker for 10-30 min. Absorbance (A) is measured at […] using a Varioskan® Flash reader (Thermo Scientific).
# The fluorescence signal (F) derived from the GCase measurement is normalized to the absorbance signal (A) derived from the crystal violet staining. The percent GCase activity resulting from compound treatment is calculated relative to the basal activity obtained from untreated cells.
# Maximal effect of compounds (Emax) is determined from the dose response effects as the maximum “Percent GCase activity” achieved in the dose range tested.
# [1] = maximum percent GCase activity relative to untreated cells in the dose range tested
SMILES,GBA EC1.5,Emax [1],GBA Emax [1]
"CN1CCCC(C)(C2=NOCC(CN3CCCCC3)O2)C1 (racemic) [compound 529, rac-3-(1,3-dimethylpiperidin-3-yl)-5-(piperidin-1-ylmethyl)-5,6-dihydro-1,4,2-dioxazine]",11 µM,222%,–
CN1CCCC1C1=NOCC(CN2CCCCC2)O1 (stereo not shown) [compound 695],50 µM,111%,–
"C1CCN(CC2CON=C([C@@]34CN[C@@H](CO3)C4)O2)CC1 (mixture of isomers) [compound 490, rac-(1R,4R)-1-(5-(piperidin-1-ylmethyl)-5,6-dihydro-1,4,2-dioxazin-3-yl)-2-oxa-5-azabicyclo[2.2.1]heptane]",11 µM,215%,–
COc1cc(C)c(CC2(C3=NOCC(CN4CCCCC4)O3)CCNCC2)cn1 (stereo not shown) [compound 702],50 µM,110%,–
"C1CCN(CC2CON=C([C@]34CCC[C@H]3NCC4)O2)CC1 (relative stereo) [compound 584, rac-rel-trans-3-((3aS,6aR)-hexahydrocyclopenta[b]pyrrol-3a(1H)-yl)-5-(piperidin-1-ylmethyl)-5,6-dihydro-1,4,2-dioxazine]",10 µM and 5 µM,–,253% and 204%
"C1CCN(CC2CON=C([C@]34CNC[C@H]3CCOC4)O2)CC1 (relative stereo) [compound 461, rac-rel-trans-(3aR,7aR)-3a-(5-(piperidin-1-ylmethyl)-5,6-dihydro-1,4,2-dioxazin-3-yl)octahydropyrano[3,4-c]pyrrole]",19 µM,203%,–
"CN(C)CCC1=NOCC(CN2CCCCC2)O1 (racemic) [compound 779, rac-N,N-dimethyl-2-(5-(piperidin-1-ylmethyl)-5,6-dihydro-1,4,2-dioxazin-3-yl)ethan-1-amine]",11 µM,259%,–
"c1cncc(CC2(C3=NOCC(CN4CCCCC4)O3)CCNCC2)c1 (racemic) [compound 550, rac-5-(piperidin-1-ylmethyl)-3-(4-(pyridin-3-ylmethyl)piperidin-4-yl)-5,6-dihydro-1,4,2-dioxazine]",27 µM,159%,–
"CN1CCN(CCC2=NOCC(CN3CCCCC3)O2)CC1 (racemic) [compound 823, rac-3-(2-(4-methylpiperazin-1-yl)ethyl)-5-(piperidin-1-ylmethyl)-5,6-dihydro-1,4,2-dioxazine]",18 µM,312%,–
"C1CCN(CC2CON=C(CC3CCCNC3)O2)CC1 (racemic) [compound 554, rac-5-(piperidin-1-ylmethyl)-3-(piperidin-3-ylmethyl)-5,6-dihydro-1,4,2-dioxazine]",11 µM,271%,–
c1nc(C2CCCNC2)sc1C1=NOCC(CN2CCCCC2)O1 (stereo not shown) [compound 875],5 µM,165%,–
CC(=O)N1CCCC1C1=NOCC(CN2CCCCC2)O1 (stereo not shown) [compound 692],50 µM,107%,–
"CC1ON=C(C2CCNC2)OC1CN1CCCCC1 (racemic) [compound 616, rac-6-methyl-5-(piperidin-1-ylmethyl)-3-(pyrrolidin-3-yl)-5,6-dihydro-1,4,2-dioxazine]",6 µM,390%,–
c1cc(C2CCCNC2)ccc1C1=NOCC(CN2CCCCC2)O1 (stereo not shown) [compound 856],2 µM,134%,–
COc1cc(OC)c(CNCCC2=NOCC(CN3CCCCC3)O2)cn1 (stereo not shown) [compound 829],5 µM,175%,–
OC1(C2=NOCC(CN3CCCCC3)O2)CCNCC1 (stereo not shown) [compound 650],50 µM,141%,–

SMILES,GBA EC1.5,Emax [1],GBA Emax [1]
Cn1cnc(CC2(C3=NOCC(CN4CCCCC4)O3)CCNCC2)c1 (stereo not shown) [compound 582],50 µM,114%,–
CC(C)c1ccc(CC2(C3=NOCC(CN4CCCCC4)O3)CCNCC2)cn1 (stereo not shown) [compound 538],1 µM,147%,–
"C1CCN(CC2CON=C(C34CCCN(CC3)C4)O2)CC1 (racemic) [compound 553, rac-3-(1-azabicyclo[3.2.1]octan-5-yl)-5-(piperidin-1-ylmethyl)-5,6-dihydro-1,4,2-dioxazine]",4 µM,341%,–
"CN(C)[C@H]1CC[C@@H](C2=NOCC(CN3CCCCC3)O2)CC1 (relative stereo) [compound 569, rac-rel-cis-(1S,4S)—N,N-dimethyl-4-(5-(piperidin-1-ylmethyl)-5,6-dihydro-1,4,2-dioxazin-3-yl)cyclohexan-1-amine]",7 µM,187%,–
"C[C@@H]1CNC[C@@]1(C)C1=NOCC(CN2CCCCC2)O1 (relative stereo) [compound 489, rac-rel-cis-3-((3R,4R)-3,4-dimethylpyrrolidin-3-yl)-5-(piperidin-1-ylmethyl)-5,6-dihydro-1,4,2-dioxazine]",29 µM,242%,–
O=C1NCCC1C1=NOCC(CN2CCCCC2)O1 (stereo not shown) [compound 637],50 µM,111%,–
"NCC(=O)N1CCC(C2=NOCC(CN3CCCCC3)O2)CC1 (racemic) [compound 787, rac-2-amino-1-(4-(5-(piperidin-1-ylmethyl)-5,6-dihydro-1,4,2-dioxazin-3-yl)piperidin-1-yl)ethan-1-one]",42 µM,193%,–
"CC1(C2=NOCC(CN3CCCCC3)O2)CNCCO1 (racemic) [compound 480, rac-3-(2-methylmorpholin-2-yl)-5-(piperidin-1-ylmethyl)-5,6-dihydro-1,4,2-dioxazine]",16 µM,273%,–
CN1[C@@H]2CC[C@H]1CN(CC1CON=C(C3(C)CCNCC3)O1)C2 (stereo partly shown) [compound 603],50 µM,102%,–
CN1CCC(C2=NOCC(CN3CCCCC3)O2)CC1=O (stereo not shown) [compound 676],50 µM,120%,–
"C1CCN(CC2CON=C([C@]34CCN[C@H]3CCOC4)O2)CC1 (relative stereo) [compound 462, rac-rel-trans(3aR,7aS)-3a-(5-(piperidin-1-ylmethyl)-5,6-dihydro-1,4,2-dioxazin-3-yl)octahydropyrano[4,3-b]pyrrole di-2,2,2-trifluoroacetate]",9 µM,241%,–
CN1CCC(C2=NOCC(C)(CN3CCCCC3)O2)CC1 (stereo not shown) [compound 870],6 µM,217%,–
"Fc1cncc(CC2(C3=NOCC(CN4CCCCC4)O3)CCNCC2)c1 (racemic) [compound 528, rac-3-(4-((5-fluoropyridin-3-yl)methyl)piperidin-4-yl)-5-(piperidin-1-ylmethyl)-5,6-dihydro-1,4,2-dioxazine]",6 µM,181%,–
"CN1CCCC(C2=NOCC(CN3CCCCC3)O2)C1 (racemic) [compound 648, rac-3-(1-methylpiperidin-3-yl)-5-(piperidin-1-ylmethyl)-5,6-dihydro-1,4,2-dioxazine]",4.3 µM,201%,–
"c1ncn2c1CC(C1=NOCC(CN3CCCCC3)O1)CC2 (racemic) [compound 655, rac-5-(piperidin-1-ylmethyl)-3-(5,6,7,8-tetrahydroimidazo[1,5-a]pyridin-7-yl)-5,6-dihydro-1,4,2-dioxazine]",8 µM,232%,–
"C1CCN(CCC2=NOCC(CN3CCCCC3)O2)CC1 (racemic) [compound 816, rac-3-(2-(piperidin-1-yl)ethyl)-5-(piperidin-1-ylmethyl)-5,6-dihydro-1,4,2-dioxazine]",4 µM,181%,–
